Patent US10421769B2, “Anticancer property studies of chiral palladium N-heterocyclic carbene complexes and process for preparation thereof” (Indian Institute of Technology Bombay, priority 2017, dated 2019)
Where two headings read alike, the source gives them in different places.

Columns and labels:
HCT 116 cell lines = details: HCT 116, MTT, 72 hours, Haque et al. Metallomics 2013; read-out: HCT-116 (IC50 value), prior art (b); cited from earlier work
[1] = system: intracellular ROS in MCF-7 cells; assay: Reactive oxygen species (ROS) assay using H2DCFDA, flow cytometry; assay type: cell-based, human; details: MCF-7, 30 μM, 24 h, positive control
Description: Experiment: Reactive oxygen species (ROS) production in cells when treated with (1R,2R,5S)-1c, was estimated by ROS assay using 2′,7′-dichlorodihydrofluorescein diacetate (H2DCFDA). MCF-7 cells (5 mL) were seeded in 60 mm cell culture dishes at a density of 1.5×10^5 cells/mL. After cell attachment, they were incubated with 4 and 8 μM (1R,2R,5S)-1c for 24 h. Cells treated with 30 μM hydrogen peroxide was used as a positive control. Following 24 h of incubation, the cells were processed and analyzed using flow cytometry. The percentage of DCFH-DA positive MCF-7 cells in the absence and presence 4 and 8 μM (1R,2R,5S)-1c was determined by flow cytometry. 30 μM H2O2 was used as a positive control. Data are average of three independent set of experiments and ±indicates S.D.

MCF-7 cells [2] = assay: Sulforhodamine B assay, proliferation of MCF-7 cells; assay type: cell-based, human; details: MCF-7 breast cancer cells, one cell cycle (48 h), SRB
Description: (§1) The present invention further provides a Sulforhodamine B assay method for investigating the anti-cancer efficacies of the compounds of the present Pd—NHC series on MCF-7, HeLa, A549, B16-F10 and EMT6/AR1 cancer cell lines and also for a comparative study on normal skin cell line L929 and normal epithelial breast cells MCF10A. The said Sulforhodamine B assay is conducted as per reported method (Skehan et al., J. Natl. Cancer Inst. 1990, 82, 1107).
(§2) Experiment: The anti-proliferative activity of the present palladium N-heterocyclic carbene complexes on two different cancer cell lines MCF-7 and HeLa is tested using Sulforhodamine B assay to reveal their anti-tumor properties. The evaluation of growth inhibition of these complexes is done from their IC50 values for the inhibition of cell growth. The IC50 values are compared with Cisplatin to determine any increase in efficacy.
Method: The effects of present series of palladium N-heterocyclic carbene complexes, such as compounds (1S,2S,5R)-(1-3)b and (1R,2R,5S)-(1-3)b; (1S,2S,5R)-(1, 3)c and (1R,2R,5S)-(1, 3)c on the proliferation of MCF-7 cells after one cell cycle are determined by Sulforhodamine B assay. In particular, 1×10^5 cells/mL are seeded in each well in 96-well plates for 24 h and then incubated without or with different concentrations of these complexes at 37° C. for one cell cycle (48 h). After incubation of cells with the complexes for one cell cycle, cell growth is stopped by the addition of 50% trichloroacetic acid and stained with 0.4% sulforhodamine B dissolved in 1% acetic acid. Unbound dye is removed by washing with 1% acetic acid, and the protein content is determined by measuring absorbance at 520 nm in a Bio-Rad model 680 microplate reader after extracting with 10 mM tris base. IC50 value is calculated as the concentration of the complex that inhibited the proliferation of cells by 50% relative to the untreated control cells. The anticancer activities of the present Pd—NHC compounds are graphically represented in accompanying FIG. 1.
(§3) The data obtained is graphically represented in accompanying FIG. 2.

HeLa cells [3] = assay: Sulforhodamine B assay, proliferation of HeLa cells; assay type: cell-based, human; details: HeLa cervical cancer cells, 24 h, SRB
Description: as §1, §2
The seeded cells in 96-well plates are incubated with the complex for 24 h and the assay is performed.
as §3

MCF-7 cells [4] = assay: Live dead assay by flow cytometry using propidium iodide; assay type: cell-based, human; details: MCF-7, 4 μM, 48 h
Description: MCF-7 cells (5 mL) were seeded in 60 mm cell culture dishes at a density of 1.5×10^5 cells/mL. Cells were incubated with 4 and 8 μM (1R,2R,5S)-1c for 48 h for live dead assay. After the required incubation, cells were processed and analyzed by flow cytometry. Percentage of live and dead MCF-7 cells in the absence and presence of 4 and 8 μM (1R,2R,5S)-1c and 4 μM cisplatin was determined by flow cytometry using propidium iodide (PI).

MCF-7 cells [5] = details: MCF-7, one cell cycle, SRB, Ghosh et al. JACS 2007; read-out: MCF-7 (IC50 value), prior art (a); cited from earlier work
HeLa cells [6] = details: one cell cycle, SRB, Ghosh et al. JACS 2007, read-out: HeLa (IC50 value), prior art (a); cited from earlier work
HCT 116 cells = details: HCT 116, one cell cycle, SRB, Ghosh et al. JACS 2007; read-out: HCT-116 (IC50 value), prior art (a); cited from earlier work

Compound: C=CCN1C=CN(CCCC)[CH]1[Pd]([Cl])([Cl])[CH]1N(CC=C)C=CN1CCCC (stereo not shown) [Compound 8]
- IC50 (HCT 116 cell lines): 26.5 µM

Compound: CCCCN1C=CN(Cc2ccccc2)[CH]1[Pd]([Cl])([Cl])[CH]1N(CCCC)C=CN1Cc1ccccc1 (stereo not shown) [Compound 9]
- IC50 (HCT 116 cell lines): 6.6 µM

Compound: OO [Compound H2O2, hydrogen peroxide, reference compound]
- % of DCFH-DA positive cells [1]: 72 ± 4%

Compound: N.N.[Cl][Pt][Cl] [cisplatin, cis-diammine-dichloroplatinum (II), reference compound]
- IC50 (MCF-7 cells [2]; read-out: IC50 (μM), MCF-7): 14.9 ± 0.4 µM
- IC50 (HeLa cells [3]): 8.5 ± 0.7 µM
- Dead % (MCF-7 cells [4]): 8 ± 2%
- Live % (MCF-7 cells [4]): 93 ± 4%
- IC50 (MCF-7 cells [5]): 15 µM
- IC50 (HeLa cells [6]): 8 µM
- IC50 (HCT 116 cells): 16 µM

Compound: trans-[1-(1R)-menthyl-4-(allyl)-1,2,4-triazol-5-ylidene]2PdBr2 [(1R,2R,5S)-2b]
- IC50 (MCF-7 cells [2]; read-out: IC50 (μM), MCF-7): ~10 µM

Compound: trans-[1-(1R)-menthyl-4-(benzyl)-1,2,4-triazol-5-ylidene]2Pd(OCOCF3)2 [(1R,2R,5S)-3c]
- IC50 (MCF-7 cells [2]; read-out: IC50 (μM), MCF-7): > 10 µM

Compound: trans-[1-(1R)-menthyl-4-(benzyl)-1,2,4-triazol-5-ylidene]2PdBr2 [(1R,2R,5S)-3b]
- IC50 (MCF-7 cells [2]; read-out: IC50 (μM), MCF-7): > 10 µM

Compound: trans-[1-(1R)-menthyl-4-(ethyl)-1,2,4-triazol-5-ylidene]2PdBr2 [(1R,2R,5S)-1b]
- IC50 (MCF-7 cells [2]; read-out: IC50 (μM), MCF-7): 2.3 ± 1 µM

Compound: trans-[1-(1S)-menthyl-4-(allyl)-1,2,4-triazol-5-ylidene]2PdBr2 [(1S,2S,5R)-2b]
- IC50 (MCF-7 cells [2]; read-out: IC50 (μM), MCF-7): ~10 µM

Compound: trans-[1-(1S)-menthyl-4-(benzyl)-1,2,4-triazol-5-ylidene]2Pd(OCOCF3)2 [(1S,2S,5R)-3c]
- IC50 (MCF-7 cells [2]; read-out: IC50 (μM), MCF-7): > 10 µM

Compound: trans-[1-(1S)-menthyl-4-(benzyl)-1,2,4-triazol-5-ylidene]2PdBr2 [(1S,2S,5R)-3b]
- IC50 (MCF-7 cells [2]; read-out: IC50 (μM), MCF-7): > 10 µM

Compound: trans-[1-(1S)-menthyl-4-(ethyl)-1,2,4-triazol-5-ylidene]2Pd(OCOCF3)2 [(1S,2S,5R)-1c]
- IC50 (MCF-7 cells [2]; read-out: IC50 (μM), MCF-7): 0.7 ± 0.005 µM
- IC50 (MCF-7 cells [2]; unit nM printed in cell or sentence, read-out: IC50, MCF-7 (values given in nM)): 0.7 ± 0.005 µM
- IC50 (HeLa cells [3]; listed as drawing 40): 2.6 ± 1.6 µM
- IC50 (HeLa cells [3]; listed as drawing 47): 2.6 ± 1.6 µM

Compound: trans-[1-(1S)-menthyl-4-(ethyl)-1,2,4-triazol-5-ylidene]2PdBr2 [(1S,2S,5R)-1b]
- IC50 (MCF-7 cells [2]; read-out: IC50 (μM), MCF-7): 2.2 ± 0.1 µM
